{"source": "patent US20150283233A1", "about": "“Compositions and Methods for Enhancing Immune Responses” (Gencia Corporation, priority 2012, published 2015)", "test_system": "MHC I", "assay": "MHC I western blot of orthotopic MiaPaca-2 pancreatic xenografts, with or without gemcitabine", "assay_type": "in vivo, BALB/c nude mouse", "conditions": "gemcitabine only, 40 mg/kg every 3 days, orthotopic MiaPaca-2 tumors, FIG. 11", "method": "MiaPaCa-2 tumor cells was maintained in vitro as monolayer culture in DMEM medium supplemented with 10% fetal bovine serum, 2.5% horse serum, 100 Um′ penicillin and 100 μg/ml streptomycin, and 2 mM L-glutamine at 37° C. in an atmosphere of 5% CO2 in air. The tumor cells were routinely subcultured twice weekly by trypsin-EDTA treatment. Cells in an exponential growth phase will be harvested and counted for tumor inoculation. Before orthotopic implantation, 5×10^6 MiaPaca-2 cells in 50 μl PBS mixed with 50 μl Matrigel were inoculated subcutaneously at the right flank of each BALB/c nude mouse. Upon subcutaneous tumor size reaching about 500 mm^3, tumors were collected for orthotopic implantation.\nFor orthotopic MiaPaca-2 xenografts, mice were anesthetized by intraperitoneal injection of pentobarbital sodium (50 mg/kg) before tumor inoculation. The abdominal skin was sterilized and laparotomy was performed to expose the pancreas. Each mouse was inoculated with a subcutaneous MiaPaca-2 tumor fragment (2-3 mm in diameter) in the subcapsular region of the pancreas for tumor development. The abdominal wall was closed using No. 6 suture and then sterilized with povidone iodine solution. The day of surgery was denoted as Day 0 (D0). The treatments with vehicle, gemcitabine only, PTD-TFAM only, and PTD-TFAM in combination with gemcitabine were started at 10 days post tumor fragment inoculation. […]", "data": [{"smiles": "Nc1ccn([C@@H]2O[C@H](CO)[C@@H](O)C2(F)F)c(=O)n1", "note": "[Gemcitabine]", "values": [{"measurement": "MHC I expression", "result": "decreased"}]}]}
